Experimental data reported in US20230338307A1, “PROPHYLACTIC AGENT, AMELIORATING AGENT, AND THERAPEUTIC AGENT FOR DRY EYE” (TSUBOTA LABORATORY, INC., priority 2020, published 2023).

Tests used:
[1] = reported for dry eye treatment; cited from earlier work
dry eye model [2] = test: Fluorescein staining score, 0.2% benzalkonium chloride dry eye model, Comparative Study 2 (Example 5); assay type: in vivo, mice; conditions: two days after start, compared with control; 0.03% apocynin, 0.5% (w/v) hyaluronic acid or 3% diquafosol sodium twice a day; FIG. 11A
Text: After acclimating male C57BL6 mice (7 weeks old) to the experimental environment, those with almost uniform weight values and no eye abnormalities were divided into the following groups (n=3 to 4). • 7 weeks old/normal (non-dry eye group) • 7 weeks old/dry eye model+control (solvent eye drop) group • 7 weeks old/dry eye model+0.003% (w/v) apocynin eye drop group • 7 weeks old/dry eye model+0.03% (w/v) apocynin eye drop group • 7 weeks old/dry eye model+3% diquafosol sodium eye drop group • 7 weeks old/dry eye model+0.5% (w/v) hyaluronic acid eye drop group A dry eye model was created by instilling 3 μL of the 0.2% benzalkonium chloride solution into each of both eyes twice a day for 8 days. Then, the control group received PBS alone, and the test group received 0.003% (w/v), 0.03% (w/v) apocynin and 0.5% (w/v) hyaluronic acid in PBS. The 3% diquafosol sodium eye drop was instilled into each of both eyes at 3 μL, twice a day for 9 days. In Example 5, 1, 2, 5, and 9 days after the start of instillation of the comparative test drug, 1 μL of 0.1% sodium fluorescein solution was instilled into each of both eyes. Fluorescein-stained images were observed under a blue filter using a slit lamp (Kowa Co., Ltd., SL-17), and the degree of corneal epithelial damage was scored.

dry eye model [3] = test: Fluorescein staining score, benzalkonium chloride dry eye model, Comparative Study 1 (Example 4); assay type: in vivo, mice; conditions: 3 days after start of instillation, compared to control; 0.1% (w/v) apocynin or 0.5% (w/v) hyaluronic acid twice a day; FIG. 9A
Method: After acclimating male C57BL6 mice (7 weeks old) to the experimental environment, those with almost uniform weight values and no eye abnormalities were divided into the following groups (n=4). • 7 weeks old/normal (non-dry eye group) • 7 weeks old/dry eye model+control (solvent eye drop) group • 7 weeks old/dry eye model+0.1% (w/v) apocynin eye drop group • 7 weeks old/dry eye model+0.5% (w/v) hyaluronic acid eye drop group A dry eye model was prepared by instilling the benzalkonium chloride solution at 3 μL each eye, twice a day for 8 days. After that, the control group received the 0.5% methylcellulose solution alone, and the test group received 0.1% (w/v) apocynin or 0.5% (w/v) hyaluronic acid suspended in the 0.5% methylcellulose solution twice a day for 15 days at 3 μL for each of both eyes. In Example 4, 1, 3, 6, 8, and 15 days after the start of instillation of the comparative test drug, 1 μL of the 0.1% fluorescein sodium solution was instilled into each of both eyes. Fluorescein-stained images were observed under a blue filter using a slit lamp (Kowa Co., Ltd., SL-17), and the degree of corneal epithelial damage was scored.

Row | Molecule | side effect specific to ingredients [1] | fluorescein staining score (corneal epithelial damage) (dry eye model [2]) | fluorescein staining score (corneal damage) (dry eye model [3])
1 | O=c1ccn([C@@H]2O[C@H](COP(=O)(O)OP(=O)(O)OP(=O)(O)OP(=O)(O)OC[C@H]3O[C@@H](n4ccc(=O)[nH]c4=O)[C@H](O)[C@@H]3O)[C@@H](O)[C@H]2O)c(=O)[nH]1 [diquafosol sodium, reference compound] | causes ocular discharge and eye pain | no effect was observed | –
2 | O=C(NC(Cc1cc(=O)[nH]c2ccccc12)C(=O)O)c1ccc(Cl)cc1 (centres unmarked) [rebamipide] | causes dysgeusia | – | –
3 | hyaluronic acid [reference compound] | – | no effect was observed | no effect was observed
